Patent US20260274892A1, “MACROCYCLIC BROAD SPECTRUM ANTIBIOTICS” (RQx Pharmaceuticals, Inc., priority 2017, published 2026)

Tests used:
[1] = system: Methicillin Resistant Staphylococcus aureus strain USA 200; test: Minimum inhibitory concentration (MIC), CLSI broth micro-dilution, S. aureus; assay type: cell-based; settings: Staphylococcus aureus, MRSA / USA200; Table 6; MRSA USA 200; cation adjusted Mueller Hinton Broth + 0.002% Tween-80; 35° C., 22 hours
Experimental: In vitro antimicrobial activity of each compound was determined by measuring minimal inhibitor concentrations (MICs) using the broth micro-dilution technique as approved by the Clinical and Laboratory Standards Institute (CLSI) (Methods for Dilution Antimicrobial Susceptibility Tests for Bacteria that Grow Aerobically; Approved Standard-Eighth Edition. CLSI document M07-A8. Wayne, PA: Clinical and Laboratroy Standards; 2009). Antibacterial activity was measure against two strains of bacteria: a Methicillin Resistant Staphylococcus aureus strain USA 200, (S. aureus) and Escherichia coli ATCC 25922 (E. coli), a clinically relevant Gram-negative strain. Cells were inoculated onto plates of Trypyticase Soy Agar or Luria Agar respectively and grown at 35° C. for 20 hours. Inocula suspensions were prepared by scraping cells into 1 mL of testing media (cation adjusted Mueller Hinton Broth supplemented with 0.002% v/v Tween-80) and diluting to a final OD600nm of 0.01.
Test compounds were prepared in DMSO at a concentration of 10 mg/mL. In protocol 1, the compound stocks were diluted into testing media at a concentration of 64 µg/ml and serial 2-fold dilutions were made in the same media, in 96-well U bottom microtiter dishes, for a total of 10 compound concentrations. In protocol 2, the compound stocks were diluted into testing media at a concentration of 4 µg/mL and serial 2-fold dilutions were made in the same media, in 96-well U bottom microtiter dishes, for a total of 10 compound concentrations. In protocol 3, compound stocks were diluted into testing media at a concentration of 0.5 μg/mL, with serial 2-fold dilutions conducted as described above. In protocol 4, compound stocks were diluted into testing media at a concentration of […], with serial 2-fold dilutions conducted as described above. Inocula suspensions were added to the 2-fold serial dilutions of test compounds to a final density of GD OD600nm of 0.0005 and incubated at 35° C. for 22 hours.

[2] = system: Escherichia coli ATCC 25922; test: Minimum inhibitory concentration (MIC), CLSI broth micro-dilution, E. coli; assay type: cell-based; settings: Escherichia coli, ATCC25922, 22 h, Table 6, cation adjusted Mueller Hinton Broth + 0.002% Tween-80, 35° C.
How it was run: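 Colonies grown 20 h at 35° C on Trypticase Soy agar (MRSA) or Luria agar (E. coli) were suspended in cation-adjusted Mueller Hinton broth with 0.002% Tween-80. Suspensions were added at OD600 0.0005 to 10-point twofold compound dilutions, then incubated 22 h at 35° C.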

| SMILES | MIC [1] [µM] | MIC [2] [µM] |
| --- | --- | --- |
| Cc1cc(-c2ccc3c(c2)CCC3(C)C)nc(C)c1C(=O)N[C@@H](CCN)C(=O)N(C)[C@@H]1C(=O)N[C@@H](C)C(=O)N[C@H](C(=O)NCC#N)Cc2ccc(OCCN)c(c2)-c2cc1ccc2OCCN (racemic) [Compound 361, rac-(8S,11S,14S)-3,18-bis(2-aminoethoxy)-N-(cyanomethyl)-11-methyl-14-[methyl-[rac-(2S)-4-amino-2-[[6-(1,1-dimethylindan-5-yl)-2,4-dimethyl-pyridine-3-carbonyl]amino]butanoyl]amino]-10,13-dioxo-9,12-diazatricyclo[13.3.1.12,6]icosa-1(18),2(20),3,5,15(19),16-hexaene-8-carboxamide] | 0.016 | 0.13 |
| CCCCCCCc1ccc(C(=O)N[C@H](CCN)C(=O)N(C)[C@@H]2C(=O)N[C@@H](C)C(=O)N[C@H](C(=O)NCC#N)Cc3ccc(OCCN)c(c3)-c3cc2ccc3OCCN)c(C)c1 (racemic) [Compound 456, rac-(8S,11S,14S)-3,18-bis(2-aminoethoxy)-N-(cyanomethyl)-11-methyl-14-[methyl-[rac-(2R)-4-amino-2-[(4-heptyl-2-methyl-benzoyl)amino]butanoyl]amino]-10,13-dioxo-9,12-diazatricyclo[13.3.1.12,6]icosa-1(18),2(20),3,5,15(19),16-hexaene-8-carboxamide] | 0.56 | 3.3 |
| CCC(C)(C)c1ccc(-c2nc(C)c(C(=O)N[C@@H](CCN)C(=O)N(C)[C@@H]3C(=O)N[C@@H](C)C(=O)N[C@H](C(=O)NCC#N)Cc4ccc(OCCN)c(c4)-c4cc3ccc4OCCN)c(C)n2)cc1 (racemic) [Compound 261, rac-(8S,11S,14S)-3,18-bis(2-aminoethoxy)-N-(cyanomethyl)-11-methyl-14-[methyl-[rac-(2S)-4-amino-2-[[2-[4-(1,1-dimethylpropyl)phenyl]-4,6-dimethyl-pyrimidine-5-carbonyl]amino]butanoyl]amino]-10,13-dioxo-9,12-diazatricyclo[13.3.1.12,6]icosa-1(18),2(20),3,5,15(19),16-hexaene-8-carboxamide] | 0.014 | 0.1 |

Continued by falling MIC [1], values first:

| MIC [1] [µM] | MIC [2] [µM] | SMILES |
| --- | --- | --- |
| 0.031 | 0.25 | Cc1nc(-c2ccc(C3CC3)cc2)nc(C)c1C(=O)N[C@@H](CCN)C(=O)N(C)[C@@H]1C(=O)N[C@@H](C)C(=O)N[C@H](C(=O)NCC#N)Cc2ccc(OCCN)c(c2)-c2cc1ccc2OCCN (racemic) [Compound 300, rac-(8S,11S,14S)-3,18-bis(2-aminoethoxy)-N-(cyanomethyl)-11-methyl-14-[methyl-[rac-(2S)-4-amino-2-[[2-(4-cyclopropylphenyl)-4,6-dimethyl-pyrimidine-5-carbonyl]amino]butanoyl]amino]-10,13-dioxo-9,12-diazatricyclo[13.3.1.12,6]icosa-1(18),2(20),3,5,15(19),16-hexaene-8-carboxamide] |
| 0.016 | 0.13 | Cc1nc(-c2ccc(C(C)(C)c3ccccc3)cc2)ncc1C(=O)N[C@@H](CCN)C(=O)N(C)[C@@H]1C(=O)N[C@@H](C)C(=O)N[C@H](C(=O)NCC#N)Cc2ccc(OCCN)c(c2)-c2cc1ccc2OCCN (racemic) [Compound 236, rac-(8S,11S,14S)-3,18-bis(2-aminoethoxy)-N-(cyanomethyl)-11-methyl-14-[methyl-[rac-(2S)-4-amino-2-[[4-methyl-2-[4-(1-methyl-1-phenyl-ethyl)phenyl]pyrimidine-5-carbonyl]amino]butanoyl]amino]-10,13-dioxo-9,12-diazatricyclo[13.3.1.12,6]icosa-1(18),2(20),3,5,15(19),16-hexaene-8-carboxamide] |
